Experimental data published in publication PMC4543428 (European journal of pharmacology, 2015).
Counter-ions that a name gives are not always drawn. Like-named read-outs stand apart in the source and are kept apart here.

Columns and labels:
sigma1 receptor [1] = molecular target: T1, sigma1 receptor (Mus musculus, UniProt O55242); conditions: for Sigma1 nH (pseudo-Hill slope): 1.0 nM [3H](+)-pentazocine, 6 h, 37 °C
sigma2 receptor [2] = molecular target: T2, sigma2 receptor (Mus musculus, UniProt Q8VD00); assay: Sigma2 receptor competition binding against [3H]DTG /; conditions: for Sigma2 nH (pseudo-Hill slope): 3.0 nM [3H]DTG / 500 nM (+)-pentazocine, 60 min, 25 °C; for Selectivity Ki Ratio σ2/σ1: sigma2 Ki / sigma1 Ki
T2 sequence (Q8VD00 1-176): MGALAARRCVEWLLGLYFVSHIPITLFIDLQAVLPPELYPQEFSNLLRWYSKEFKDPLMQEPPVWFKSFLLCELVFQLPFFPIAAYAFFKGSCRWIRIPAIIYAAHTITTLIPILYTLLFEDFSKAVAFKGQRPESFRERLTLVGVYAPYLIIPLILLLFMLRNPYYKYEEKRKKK

sigma1 receptor [3] = molecular target: T1, sigma1 receptor; assay: biochemical
sigma1 receptor [4] = molecular target: T1, sigma1 receptor; format: in vivo; conditions: for ED50: mouse, ip
sigma2 receptor [5] = assay: [3H]DTG association kinetics and homologous; format: binding, mouse; conditions: 25 °C; 3.0 nM; 500 nM (+)-pentazocine

T1 sequence (O55242 whole entry): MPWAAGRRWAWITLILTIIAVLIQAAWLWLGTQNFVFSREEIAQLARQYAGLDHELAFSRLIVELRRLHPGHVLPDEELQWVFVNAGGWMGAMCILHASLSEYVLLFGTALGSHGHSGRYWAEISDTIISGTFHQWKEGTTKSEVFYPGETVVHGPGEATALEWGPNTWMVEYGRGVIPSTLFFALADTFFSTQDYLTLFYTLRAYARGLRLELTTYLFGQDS

C=CCN1CCC2(C)c3cc(O)ccc3CC1C2C (single isomer, unassigned; (+)) [(+)-NANM, (+)-N-allylnormetazocine]
Sigma1 nH (pseudo-Hill slope) (sigma1 receptor [1]; mouse lung membranes): 1.04 ± 0.10 | Sigma2 nH (pseudo-Hill slope) (sigma2 receptor [2]; mouse lung membranes): 1.63 ± 0.35 | Selectivity Ki Ratio σ2/σ1 (sigma2 receptor [2]; mouse lung membranes): 1162

C=CCN1CCC2(C)c3cc(O)ccc3CC1C2C (single isomer, unassigned; (-)) [(−)-NANM, (−)-N-allylnormetazocine]
Sigma1 nH (pseudo-Hill slope) (sigma1 receptor [1]; mouse lung membranes): 1.48 ± 0.28 | Sigma2 nH (pseudo-Hill slope) (sigma2 receptor [2]; mouse lung membranes): 0.85 ± 0.09 | Selectivity Ki Ratio σ2/σ1 (sigma2 receptor [2]; mouse lung membranes): 2.0

Cc1ccc2c(c1)C1CN(C)CCC1N2C(=O)CSc1nnnn1-c1ccc(Cl)cc1 (stereo not drawn) [AG-205, Z-2-[[1-(4-chlorophenyl)-1H-tetrazol-5-yl]thio]-1-(1,2,3,4,4a,9b-hexahydro-2,8-dimethyl-5H-pyrido[4,3-b]indol-5-yl)ethanone]
Sigma1 nH (pseudo-Hill slope) (sigma1 receptor [1]; mouse lung membranes): 1.11 ± 0.12 | residual specific [3H](+)-pentazocine binding at highest concentration (sigma1 receptor [1]; 0.02 M, the highest concentration used): approximately 10% | Sigma2 nH (pseudo-Hill slope) (sigma2 receptor [2]; mouse lung membranes): 1.06 ± 0.20 | higher apparent affinity for sigma2 sites over sigma1 sites (sigma2 receptor [2]; mouse lung membranes, from Ki values): 14 fold | Selectivity Ki Ratio σ2/σ1 (sigma2 receptor [2]; mouse lung membranes): 0.07

Cc1ccccc1NC(=N)Nc1ccccc1C [DTG, 1,3-di(2-tolyl)guanidine]
Sigma1 nH (pseudo-Hill slope) (sigma1 receptor [1]; mouse lung membranes): 1.21 ± 0.09 | Ki (sigma1 receptor [3]): 75.2 ± 8.01 nM | Sigma2 nH (pseudo-Hill slope) (sigma2 receptor [2]; mouse lung membranes): 0.90 ± 0.16

COc1ccc2c(c1)[C@]13CCCC[C@@H]1[C@H](C2)N(C)CC3 [Dextromethorphan, dextromethorphan hydrobromide]
Sigma1 nH (pseudo-Hill slope) (sigma1 receptor [1]; mouse lung membranes): 0.86 ± 0.12 | Hill slope in the presence of phenytoin (sigma1 receptor [1]; phenytoin 1.0 mM in NaOH vehicle, mouse lung membranes): 1.2 ± 0.2 | shift to higher apparent sigma1 affinity caused by phenytoin (sigma1 receptor [1]; phenytoin 1.0 mM, mouse lung membranes): 5 fold | Hill slope with vehicle only (sigma1 receptor [1]; vehicle only (50 µL, 0.15 M NaOH), mouse lung membranes): 1.3 ± 0.2 | Ki (sigma1 receptor [3]): 71.7 ± 6.56 nM | IC50 (sigma2 receptor [2]): 4510 ± 714 nM | Ki (sigma2 receptor [2]): 4200 ± 664 nM | Sigma2 nH (pseudo-Hill slope) (sigma2 receptor [2]; mouse lung membranes): 1.22 ± 0.12 | Selectivity Ki Ratio σ2/σ1 (sigma2 receptor [2]; mouse lung membranes): 58 | sigma1 receptor occupancy across tissues at higher doses (sigma1 receptor [4]; 31.6 – 100 µmol / kg (12 – 37 mg / kg)): fully occupied | ED50 (sigma1 receptor [4]; read-out: ED50, inhibition of specific radioligand binding in heart): 1.2 µmol/kg | ED50 (sigma1 receptor [4]; read-out: ED50, inhibition of specific radioligand binding in lung): 1.2 µmol/kg | ED50 (sigma1 receptor [4]; read-out: ED50, inhibition of specific radioligand binding in spleen): 3.5 µmol/kg | ED50 (sigma1 receptor [4]; read-out: ED50 values, range across lung, heart, spleen and brain): 1.1 to 4.4 µmol/kg | ED50 (sigma1 receptor [4]; read-out: ED50 values, range across tissues): 0.4 to 1.6 mg/kg | ED50 (sigma1 receptor [4]; read-out: lung ED50): 0.4 mg/kg

CC(C(O)c1ccc(O)cc1)N1CCC(Cc2ccccc2)CC1 (stereo not drawn) [Ifenprodil, ifenprodil (+)-tartrate]
Sigma1 nH (pseudo-Hill slope) (sigma1 receptor [1]; mouse lung membranes): 1.06 ± 0.11 | Ki (sigma1 receptor [3]): 16.4 ± 1.89 nM | IC50 (sigma2 receptor [2]): 2.4 ± 0.27 nM | Ki (sigma2 receptor [2]): 2.18 ± 0.24 nM | Sigma2 nH (pseudo-Hill slope) (sigma2 receptor [2]; mouse lung membranes): 0.88 ± 0.10 | Selectivity Ki Ratio σ2/σ1 (sigma2 receptor [2]; mouse lung membranes): 0.1

Cc1ccccc1NC(=N)Nc1ccccc1C [[^3H]DTG, [^3H]1,3-di(2-tolyl)guanidine]
time to steady state of specific binding (sigma2 receptor [5]): ≤ 2 min

COc1ccc(CCN2CCN(C/C=C/I)CC2)cc1OC [[^125I]E-IA-DM-PE-PIPZE, E-N-1-(3´-iodoallyl)-N´-4-(3´´,4´´-dimethoxyphenethyl)-piperazine]
specific binding in vivo in brain (sigma1 receptor [4]; mouse brain, non-specific defined by BD1063): 85% | specific binding in vivo in heart (sigma1 receptor [4]; mouse heart, non-specific defined by BD1063): 50% | specific binding in vivo in lung (sigma1 receptor [4]; mouse lung, non-specific defined by BD1063 5.0 µmol / kg i.v.): 68% | specific binding in vivo in spleen (sigma1 receptor [4]; mouse spleen, non-specific defined by BD1063): 66%

(−)-cocaine hydrochloride
Sigma2 nH (pseudo-Hill slope) (sigma2 receptor [2]; mouse lung membranes): 0.93 ± 0.09
